“And” between values parts separate entries of the source, which are not always exact repeats. Equal entries are not always repeated.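 48-hour exposure; five concentrations; linearly interpolated endpoints. Abbreviation: GI50, concentration required for 50% inhibition of growth. TGI is the concentration that stops growth completely.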

Test systems include K-562 leukemia; A549 NSCLC; HCT-15 colon; NCI-H460 lung; SNB-19 CNS; NCI-H226 lung; KM12 colon; CAKI-1 renal; MCF7 breast; MDA-MB-231 breast.
Assay in all cases: inhibition of tumour cell growth, NCI panel, 48 h

For `COC(=O)C1=CCON(c2ccccc2)C1c1ccccc1` (centres undefined), the TGI in the assay with K-562 leukemia, with A549 NSCLC, in the assay with HCT-15 colon, with NCI-H460 lung, in the assay on SNB-19 CNS and in the assay on NCI-H226 lung was more than 100 µM in each case. For the same compound, the TGI in the assay with KM12 colon and in the assay with CAKI-1 renal was more than 100 µM each time.
Take `N#CC(C#N)SCc1ccccc1`: the TGI with A549 NSCLC is more than 100 µM; in the assay on HCT-15 colon it was more than 92 µM; in the assay with NCI-H460 lung, more than 41.6 µM; in the assay with SNB-19 CNS it was more than 100 µM; in the assay on NCI-H226 lung, 76.6 µM; in the assay on KM12 colon, more than 100 µM. Also, the TGI in the assay with MCF7 breast and in the assay on CAKI-1 renal was more than 100 µM throughout.
As for `COc1ccc([C@H]2CC(=O)N3CCCC3N2)cc1` (some centres undefined), the TGI in the assay on K-562 leukemia, in the assay on A549 NSCLC, in the assay with HCT-15 colon, in the assay with NCI-H460 lung, with SNB-19 CNS and in the assay with NCI-H226 lung was more than 100 µM in each case. The TGI in the assay on KM12 colon and in the assay on CAKI-1 renal was more than 100 µM each time.
For `CC[C@H](C)[C@H](NC(=O)c1cnccn1)C(=O)N(C)[C@H](C[C@@H](OC(C)=O)c1nc(C(=O)N[C@@H](Cc2ccccc2)C[C@H](C)C(=O)OC)cs1)C(C)C`, the GI50 was 0.662 µM with K-562 leukemia; 3.22 µM in the assay with A549 NSCLC; 1.06 µM with HCT-15 colon; 1.15 µM in the assay with NCI-H460 lung; 1.42 µM with SNB-19 CNS; 4.74 µM in the assay on NCI-H226 lung. Besides, the GI50 in the assay on KM12 colon was 0.107 µM; in the assay on MDA-MB-231 breast it was 1.39 µM; with MCF7 breast it was 0.0909 µM. Further, the TGI in the assay on K-562 leukemia, in the assay on A549 NSCLC, with HCT-15 colon, with NCI-H460 lung, with SNB-19 CNS and in the assay on NCI-H226 lung was more than 33.3 µM throughout. Further, the values for the TGI with KM12 colon, in the assay on MDA-MB-231 breast and with MCF7 breast were more than 33.3 µM, 19.6 µM and more than 33.3 µM, respectively.
For the compound `CN1C2CC(C#N)C1C=CC2=O` (centres undefined), the GI50 in the assay on K-562 leukemia is 14 µM and 78.1 µM; with A549 NSCLC, 18.1 µM and > 100 µM; in the assay on HCT-15 colon, 13.6 µM and > 100 µM; with NCI-H460 lung, 15.8 µM and 73.2 µM; in the assay on NCI-H226 lung, 24 µM and > 100 µM; in the assay with KM12 colon it was 16.9 µM and 88.2 µM. Further, the GI50 in the assay with MDA-MB-231 breast is 19.7 µM and > 100 µM. In addition, the TGI in the assay on K-562 leukemia was 90.2 µM and > 100 µM; in the assay with A549 NSCLC, 46 µM and > 100 µM; in the assay on HCT-15 colon it was 40.7 µM and > 100 µM; in the assay with NCI-H460 lung it was 32.4 µM and > 100 µM; in the assay on SNB-19 CNS, more than 100 µM; in the assay with NCI-H226 lung, 59.6 µM and > 100 µM. The TGI was 33.5 µM and > 100 µM in the assay on KM12 colon; 40.7 µM and > 100 µM in the assay on MDA-MB-231 breast; more than 100 µM in the assay with MCF7 breast.
Take `CC(C)(C)OC(=O)NCC(C#N)CNC(=O)OC(C)(C)C`: the TGI with K-562 leukemia, in the assay on A549 NSCLC, in the assay on HCT-15 colon, in the assay with NCI-H460 lung, with SNB-19 CNS and with NCI-H226 lung was more than 100 µM in each case. For the same compound, the TGI with KM12 colon, with MDA-MB-231 breast and in the assay with MCF7 breast was more than 100 µM throughout.
Take `COc1cc(Nc2ccnc(N3CCN(c4ccnc5cc(Cl)ccc45)CC3)n2)cc(OC)c1`: the GI50 was 0.432 µM with K-562 leukemia; 1.81 µM with A549 NSCLC; 0.109 µM with HCT-15 colon; 1.51 µM in the assay on NCI-H460 lung; 2.64 µM in the assay with SNB-19 CNS; 2.34 µM in the assay on NCI-H226 lung. The results for the GI50 with KM12 colon, in the assay with MDA-MB-231 breast and with MCF7 breast were 0.101 µM, 0.567 µM and 0.198 µM, respectively. The TGI in the assay with K-562 leukemia is more than 100 µM; in the assay with A549 NSCLC it was more than 26.7 µM; in the assay with HCT-15 colon, more than 100 µM; in the assay with NCI-H460 lung it was more than 100 µM; with SNB-19 CNS, more than 100 µM; in the assay on NCI-H226 lung it was more than 55.7 µM. Also, the values for the TGI in the assay with KM12 colon, in the assay with MDA-MB-231 breast and with MCF7 breast were more than 100 µM, more than 100 µM and more than 25.6 µM, respectively.
Turning to `O=C(CCc1nc(=S)[nH][nH]1)NC12CC3CC(CC(C3)C1)C2`, the TGI in the assay on K-562 leukemia, in the assay on A549 NSCLC, with HCT-15 colon, with NCI-H460 lung, in the assay on SNB-19 CNS and with NCI-H226 lung was more than 100 µM in each case. For the same compound, the TGI with KM12 colon and in the assay on CAKI-1 renal was more than 100 µM each time.
With `C[n+]1cc2c3c(ccc2c2ccc4cc5c(cc4c21)OCO5)OCO3`, the GI50 was 0.47 µM in the assay with K-562 leukemia; 0.322 µM in the assay with A549 NSCLC; 0.631 µM in the assay with HCT-15 colon; 1.29 µM with NCI-H460 lung; 1.29 µM with SNB-19 CNS; 1.54 µM with NCI-H226 lung. For the same compound, the results for the GI50 in the assay with KM12 colon, with MDA-MB-231 breast and in the assay with CAKI-1 renal were 0.455 µM, 0.63 µM and 0.735 µM, respectively. Besides, the TGI is 3.06 µM with K-562 leukemia; 1.15 µM in the assay with A549 NSCLC; 2.29 µM with HCT-15 colon; 3.7 µM with NCI-H460 lung; 2.72 µM with SNB-19 CNS; 2.98 µM with NCI-H226 lung. Also, the TGI in the assay on KM12 colon turned out to be 1.64 µM; in the assay with MDA-MB-231 breast it was 1.98 µM; in the assay with CAKI-1 renal, 2.13 µM.
In the case of `CCc1ccccc1NC(=O)C(=O)C(C(=O)c1ccc(OC)cc1)c1ccc(OC)cc1` (centres undefined), the TGI with K-562 leukemia, in the assay on A549 NSCLC, in the assay with HCT-15 colon, with NCI-H460 lung, in the assay with SNB-19 CNS and in the assay with NCI-H226 lung was more than 100 µM throughout. For the same compound, the TGI with KM12 colon and with CAKI-1 renal was more than 100 µM each time.
In the case of `COc1cc(C2c3cc4c(cc3[C@@H](Nc3ccc(N(C)C)cc3)[C@H]3COC(=O)C23)OCO4)cc(OC)c1O` (some centres undefined), the GI50 with K-562 leukemia is 2.41 µM; in the assay on A549 NSCLC it was 0.173 µM; in the assay with HCT-15 colon, 1.82 µM; in the assay on NCI-H460 lung, less than 0.0075 µM; in the assay with SNB-19 CNS it was 0.441 µM; in the assay with NCI-H226 lung, 0.3 µM. The values for the GI50 with KM12 colon and with CAKI-1 renal were 3.34 µM and 0.311 µM, respectively. Further, the TGI was 75 µM and 36.8 µM in the assay on K-562 leukemia; 2.02 µM and 3.09 µM in the assay with A549 NSCLC; 8.16 µM and 11.3 µM in the assay with HCT-15 colon; 1.88 µM and 10.4 µM with NCI-H460 lung; 11.2 µM and 11.8 µM with SNB-19 CNS; 4.49 µM and 14.3 µM in the assay on KM12 colon. In addition, the TGI with CAKI-1 renal is 1.03 µM and 3.42 µM.

The record behind these values is PubChem BioAssay (NCI).
